From ChEMBL document CHEMBL4732022, “Generation of reactive oxygen species is the primary mode of action and cause of survivin suppression by sepantronium bromide (YM155)” (RSC Med Chem, 2021)
Active and inactive are the calls of the source. No cut-off for these calls is given here.

Experiments:
[1] = test system: MCF-10A; experiment: Cytotoxicity against human MCF-10A cells at 200 uM; type: cell-based
[2] = molecular target: Baculoviral IAP repeat-containing protein 5 (Homo sapiens) (UniProt O15392); experiment: Inhibition of survivin in human MDA-MB-231 cells assessed as reduction in survivin mRNA expression measured after 72 hrs by qPCR analysis; type: cell-based
[3] = molecular target: Baculoviral IAP repeat-containing protein 5 (Homo sapiens) (UniProt O15392); experiment: Inhibition of survivin in human BT-20 cells assessed as reduction in survivin mRNA expression measured after 72 hrs by qPCR analysis; type: cell-based
[4] = molecular target: Baculoviral IAP repeat-containing protein 5 (Homo sapiens) (UniProt O15392); experiment: Inhibition of survivin in human MDA-MB-453 cells assessed as reduction in survivin mRNA expression measured after 72 hrs by qPCR analysis; type: cell-based
[5] = test system: MDA-MB-231; experiment: Induction of ROS generation in human MDA-MB-231 cells assessed as increase in ROS level at 1 mM incubated for 12 hrs by […] based assay; type: functional, cell-based
[6] = test system: MDA-MB-231; experiment: Downregulation of survivin protein expression in human MDA-MB-231 cells at 1 mM incubated for 72 hrs by Western blot analysis; type: functional, cell-based
[7] = test system: MDA-MB-231; experiment: Induction of ROS generation in human MDA-MB-231 cells assessed as increase in ROS level at 20 uM incubated for 12 hrs by […] based assay; type: functional, cell-based
[8] = test system: MDA-MB-231; experiment: Downregulation of survivin protein expression in human MDA-MB-231 cells at 20 uM incubated for 72 hrs by Western blot analysis; type: functional, cell-based

Sequence of Baculoviral IAP repeat-containing protein 5 (Homo sapiens) (O15392 whole entry): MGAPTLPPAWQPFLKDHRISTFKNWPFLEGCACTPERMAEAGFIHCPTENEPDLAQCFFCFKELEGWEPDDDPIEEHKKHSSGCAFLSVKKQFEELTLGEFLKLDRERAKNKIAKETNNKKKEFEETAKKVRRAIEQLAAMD

Structure (SMILES)	Activity [1]	inhibition [2]	inhibition [3]	inhibition [4]	Activity [5]	Activity [6]	Activity [7]	Activity [8]
CCCCS(=N)(=O)CCC(N)C(=O)O (stereo unspecified) [BUTHIONINE SULFOXIMINE]	Non-Toxic	Active	Active	Active	Active	Active	–	–
CC1=CC(=O)c2ccccc2C1=O	–	Active	Active	Active	–	–	Active	Active
